For 16 compounds, IC50 results are on record in patent publication US8415378B2, “Isoxazol-3(2H)-one analogs as therapeutic agents” (AstraZeneca AB, priority 2009, dated 2013).

Molecules are shown by their SMILES.

For the test, the target named is T1, human Glu-plasminogen (Homo sapiens, UniProt P00747).
T1 construct: human Glu-plasminogen; purchased Chromogenix, Italy
T1 sequence (P00747 20-810 limits assumed): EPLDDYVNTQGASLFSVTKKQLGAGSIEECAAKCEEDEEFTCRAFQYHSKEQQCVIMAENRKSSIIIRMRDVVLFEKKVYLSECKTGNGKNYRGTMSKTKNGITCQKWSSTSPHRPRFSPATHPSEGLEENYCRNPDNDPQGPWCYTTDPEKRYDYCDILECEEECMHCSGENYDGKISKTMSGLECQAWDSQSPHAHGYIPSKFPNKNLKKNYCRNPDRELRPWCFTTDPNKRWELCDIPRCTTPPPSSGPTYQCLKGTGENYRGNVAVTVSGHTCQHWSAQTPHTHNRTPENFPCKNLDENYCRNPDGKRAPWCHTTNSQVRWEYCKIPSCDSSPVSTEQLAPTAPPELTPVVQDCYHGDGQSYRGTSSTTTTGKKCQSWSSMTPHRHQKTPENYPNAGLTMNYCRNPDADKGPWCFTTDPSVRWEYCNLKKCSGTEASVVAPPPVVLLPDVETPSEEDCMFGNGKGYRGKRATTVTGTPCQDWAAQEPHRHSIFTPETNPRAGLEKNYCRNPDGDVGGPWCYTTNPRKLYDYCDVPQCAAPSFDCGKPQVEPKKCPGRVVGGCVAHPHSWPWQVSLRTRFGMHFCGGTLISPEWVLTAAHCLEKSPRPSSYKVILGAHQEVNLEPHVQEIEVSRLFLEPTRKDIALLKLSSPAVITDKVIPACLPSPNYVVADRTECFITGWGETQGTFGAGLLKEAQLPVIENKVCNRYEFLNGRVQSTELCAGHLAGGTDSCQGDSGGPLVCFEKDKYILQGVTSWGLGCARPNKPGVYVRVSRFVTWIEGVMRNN
The experiment in a line: Clot-lysis buffer assay. In kind it is biochemical. The protocol:
The assay method used for evaluating biological activity of the compounds according to the invention was Clot-lysis buffer assay.
Tested substance were added to the reaction mixture in 10% DMSO. Reaction was started by the addition of thrombin.
Measured according to the Clot-lysis buffer assay described above.
For the compound `O=c1cc([C@H]2CCN[C@H](c3cc(F)c(F)cc3F)C2)o[nH]1` [Example 64, 5-((2S,4S)-2-(2,4,5-Trifluorophenyl)piperidin-4-yl)isoxazol-3(2H)-one], the concentration for half-maximal inhibition (IC50) came out at 31.4 µM.

Regarding `O=c1cc([C@H]2CCN[C@@H](Cc3cccc(C(F)(F)F)c3)C2)o[nH]1` [Example 107, 5-((2R,4S)-2-(3-(Trifluoromethyl)benzyl)piperidin-4-yl)isoxazol-3(2H)-one], half-maximal inhibition (IC50) was put at 1.7 µM.

In turn, `O=c1cc([C@H]2CCN[C@@H](c3ccc(F)cc3)C2)o[nH]1` [Example 25, 5-((2R,4S)-2-(4-Fluorophenyl)piperidin-4-yl)isoxazol-3(2H)-one] gave an IC50 of 2.5 µM.

`O=c1cc([C@@H]2CCN[C@H](Cc3ccc(F)c(F)c3)C2)o[nH]1` [Example 121, 5-((2S,4R)-2-(3,4-Difluorobenzyl)piperidin-4-yl)isoxazol-3(2H)-one]: the midpoint of inhibition, the IC50, lay at 120 µM. Against the preceding compound, the IC50 is about 48-fold higher.

Compound `O=c1cc([C@H]2CCN[C@H](c3ccccc3)C2)o[nH]1` [Example 78] registered a half-inhibitory concentration (IC50) of 64.2 µM.

Regarding `O=c1cc([C@@H]2CCN[C@@H](c3cc(F)c(F)c(F)c3)C2)o[nH]1` (relative stereo) [Example 62, 5-(Trans-2-(3,4,5-trifluorophenyl)piperidin-4-yl)isoxazol-3(2H)-one], the IC50 was determined as 7.1 µM.

Turning to `O=c1cc([C@H]2CCN[C@@H](Cc3ccc(OC(F)(F)F)cc3)C2)o[nH]1` [Example 113, 5-((2R,4S)-2-(4-(Trifluoromethoxy)benzyl)piperidin-4-yl)isoxazol-3(2H)-one], the IC50 turned out to be 1.1 µM.

`O=c1cc([C@H]2CCN[C@@H](c3ccc(C(F)(F)F)cc3F)C2)o[nH]1` [Example 73, 5-((2R,4S)-2-(2-Fluoro-4-(trifluoromethyl)phenyl)piperidin-4-yl)isoxazol-3(2H)-one] showed an IC50 of 1.54 µM.

Consider `O=c1cc([C@@H]2CCN[C@H](Cc3ccc(C(F)(F)F)c(F)c3)C2)o[nH]1` [Example 141, 5-((2S,4R)-2-(3-Fluoro-4-(trifluoromethyl)benzyl)piperidin-4-yl)isoxazol-3(2H)-one], for which the IC50 stood at 69.5 µM.

Compound `O=c1cc([C@H]2CCN[C@@H](COC3CCCCC3)C2)o[nH]1` [Example 84, 5-((2R,4S)-2-(Cyclohexyloxymethyl)piperidin-4-yl)isoxazol-3(2H)-one] registered an IC50 of 1.7 µM.

On to `O=c1cc([C@@H]2CCN[C@H](CC3CCC(F)(F)CC3)C2)o[nH]1` [Example 90, 5-((2R,4R)-2-((4,4-Difluorocyclohexyl)methyl)piperidin-4-yl)isoxazol-3(2H)-one], for which it took 102 µM to reach half-maximal inhibition (IC50).

In turn, `Cc1cc([C@H]2C[C@@H](c3cc(=O)[nH]o3)CCN2)ccc1C(F)(F)F` [Example 67, 5-((2R,4S)-2-(3-Methyl-4-(trifluoromethyl)phenyl)piperidin-4-yl)isoxazol-3(2H)-one] registered an IC50 of 1.3 µM.

On to `CC(C)(C)c1cc(C[C@H]2C[C@H](c3cc(=O)[nH]o3)CCN2)cc(C(C)(C)C)c1` (relative stereo) [Example 148, 5-(Trans-2-(3,5-di-tert-butylbenzyl)piperidin-4-yl)isoxazol-3(2H)-one], for which half-maximal inhibition (IC50) required 2.7 µM.

As for `O=c1cc([C@H]2CCN[C@@H](Cc3cc(F)cc(C(F)(F)F)c3)C2)o[nH]1` [Example 137, 5-((2R,4S)-2-(3-Fluoro-5-(trifluoromethyl)benzyl)piperidin-4-yl)isoxazol-3(2H)-one], it took 1 µM to reach half-maximal inhibition (IC50).

`O=c1cc([C@@H]2CCN[C@@H](c3ccc(C(F)(F)F)cc3F)C2)o[nH]1` (relative stereo) [Example 74, 5-(Trans-2-(2-fluoro-4-(trifluoromethyl)phenyl)piperidin-4-yl)isoxazol-3(2H)-one] gave an IC50 of 52.2 µM.

With `CC(C)(C)c1ccc([C@@H]2C[C@H](c3cc(=O)[nH]o3)CCN2)s1` [Example 43, 5-((2S,4R)-2-(5-tert-Butylthiophen-2-yl)piperidin-4-yl)isoxazol-3(2H)-one], the IC50 came out at 77.5 µM. The IC50 values of the last two compounds are within 1.5-fold of each other.
